Like-named read-outs stand apart in the source and are kept apart here.
Assays:
PBMCs plus B cells (BT) = test: BioMAP profiling, BT system; assay type: cell-based; details: for inhibition at 0.01 µM: 10 nM; for inhibition at 0.1 µM: 100 nM
Description: (§1) The effect of PTC299 on cytokine production was assessed using BioMAP profiling (BioSeek, now part of Eurofins). The BioMAP system is comprised of complex co-cultures of primary peripheral blood mononuclear cells (PBMCs) with other cell types including B cells, fibroblasts, and endothelial cells allowing for the measurement of physiologically relevant biomarker readouts of the activity of a compound. Using this system, cytokine production was evaluated in the following models of primary cell disease models: • Peripheral blood mononuclear cells (PBMCs) plus venular endothelial cells (sAg) • PBMCs plus B cells (BT) • PBMCs plus fibroblasts (HDFSAg) • TH2 cells plus venular endothelial cells (/TH2).
(§2) Abbreviations in Table 4: BCR, B-cell receptor; BT System, co-culture of CD19+ B cells and PBMC that utilizes BCR stimulation and sub-mitogenic TCR stimulation; HDFSAg system, co-culture of human primary dermal fibroblasts and PBMC that is stimulated with sub-mitogenic TCR levels; IL, interleukin; PBMC, Peripheral Blood Mononuclear Cell; SAg system, co-culture of endothelial cells and PBMC stimulated with mitogenic levels of TCR ligands; TCR, T-cell receptor; /TH2 system, co-culture of endothelial cells and Th2 blasts stimulated with TCR ligands and cytokines; Th2, T helper type 2; VEGF, vascular endothelial growth factor.

[1] = Rhesus monkey single oral dose PK; assay type: in vivo, Rhesus monkeys; details: single oral 10 mg/kg dose
Description: (§3) FIG. 10 is a plot of PTC299 plasma concentration (µg/mL) vs hours of plasma dihydroorotate (DHO) and PTC299 concentrations after a single dose of PTC299 was administered to a single monkey.
(§4) The dosing regimen used in the current study was also supported by experiments performed in Rhesus monkeys. Monkeys were given a single oral 10 mg/kg dose of PTC299. The DHO plasma level increased after dosing, peaked at 24 hours and then decreased, as illustrated in FIG. 10. […] The AUC for PTC299 is consistent with that observed in the healthy volunteer study PTC299-ONC-002-HV indicating this exposure would result in inhibition of DHODH and supports the use of the 200 mg BID dosing regimen in the current study.

Poliovirus = test: microbe, parasite or virus in culture; assay type: cell-based; details: Enterovirus C, HeLa, read-out: EC50 Poliovirus
[2] = tested on: Chinese hamster ovary cells
[3] = AML phase 1b study PTC299-HEM-001-LEU, PK; assay type: in vivo, human; details: 80 mg QD tablet loading dose for 7 days followed by 40 mg maintenance dose (cohort 2), AML patients
Description: It was anticipated that elimination would not be saturated with 50 mg tablet QD after 7 days of 200 mg tablet BID dosing. This is supported by results from the ongoing AML open-label, non-randomized, phase 1b study, PTC299-HEM-001-LEU.

[4] = Clinical studies of PTC299 (oncology patients, healthy volunteers): tolerability; assay type: in vivo, human
Text: PTC299 has been extensively evaluated in 9 clinical studies; 5 were in oncology (n=134) and 4 were in healthy volunteers (n=169).
(§5) The rationale for this dosing is based on the following: • The dosing regimen utilizes results from PTC’s extensive clinical, safety, and clinical pharmacology experience with the capsule formulation of PTC299 that was used in prior solid tumor clinical studies. • The tablet formulation has approximately 40% relative bioavailability compared with the capsule when administered with food. • The 200 mg BID dosing for 7 days have been tested previously in healthy volunteers in study PTC299-ONC-002-HV with no serious adverse events. […] The dosing of 200 mg BID for the first 7 days will raise the exposure of the drug quickly to accommodate the need for rapid onset of PTC299 activity..

[5] = tested on: PBMCs plus fibroblasts (HDFSAg); test: BioMAP profiling, HDFSAg system; assay type: cell-based; details: Homo sapiens
Description: as §1, §2

[6] = Relative bioavailability tablet versus capsule; details: in vivo, oral; administered with food; read-out: relative bioavailability of tablet formulation compared with the capsule
Description: as §5

West Nile virus = test: Antiviral activity, West Nile virus (Vero cells); assay type: cell-based
Rift Valley fever virus = test: microbe, parasite or virus in culture; assay type: cell-based; details: HeLa, read-out: EC50 Rift Valley fever virus
DHODH = test: Rhesus monkey single oral dose PD (plasma DHO); assay type: in vivo, Rhesus monkeys; details: after single oral 10 mg/kg dose of PTC299, Rhesus monkey
Description: as §3, §4

[7] = tested on: primary acute myeloid leukemia (AML) blast cells; details: Cao 2020; cited from earlier work
SARS-CoV-2 = SARS-CoV-2 titer in Vero cells, TCID50 assay; assay type: cell-based
[8] = Single- and repeat-dose toxicology studies in rats
[9] = read-out: % Inhibition s-IL-17F
[10] = Severe acute respiratory syndrome coronavirus 2, Vero cells, extended dose response 0.003-1000 nM

COc1ccc([C@H]2c3[nH]c4ccc(Cl)cc4c3CCN2C(=O)Oc2ccc(Cl)cc2)cc1 [PTC299, 4-chlorophenyl (S)-6-chloro-1-(4-methoxyphenyl)-1,3,4,9-tetrahydro-2H-pyrido[3,4-b]indole-2-carboxylate]
inhibition at 0.01 µM (PBMCs plus B cells (BT); read-out: % Inhibition s-IL-6): 53% | inhibition at 0.01 µM (PBMCs plus B cells (BT); [9]): 58% | inhibition at 0.01 µM (PBMCs plus B cells (BT); read-out: % Inhibition sIL-17A): 68% | inhibition at 0.01 µM (PBMCs plus B cells (BT); read-out: % Inhibition sIgG): 97% | inhibition at 0.01 µM (PBMCs plus B cells (BT); read-out: % Inhibition sTNFa): 49% | inhibition at 0.1 µM (PBMCs plus B cells (BT); read-out: % Inhibition s-IL-6): 72% | inhibition at 0.1 µM (PBMCs plus B cells (BT); [9]): 74% | inhibition at 0.1 µM (PBMCs plus B cells (BT); read-out: % Inhibition sIL-17A): 83% | inhibition at 0.1 µM (PBMCs plus B cells (BT); read-out: % Inhibition sIgG): 98% | inhibition at 0.1 µM (PBMCs plus B cells (BT); read-out: % Inhibition sTNFa): 66% | inhibition at 0.1 µM (PBMCs plus B cells (BT); B-cell, read-out: % Inhibition B cell proliferation): 31% | AUC ([1]; plasma, read-out: AUC of PTC299): 22500 ng·h/mL | Cmax ([1]; plasma, read-out: Cmax of PTC299): 2510 ng/mL | half-life ([1]; plasma, read-out: Half-life of PTC299 (converted)): 33 h | Tmax of PTC299 [1]: 2 hr post-dose | EC50 (Poliovirus): 0.6 nM | chromosomal aberration assay [2]: negative | time to steady state [3]: ~15 days | tolerability across 9 clinical studies ([4]; oncology n=134, healthy volunteers n=169, range of dosing regimens): generally well tolerated | dose-related hepatotoxicity ([4]; prior clinical studies): observed at higher doses and longer treatment durations (>85 days) | inhibition at 0.001 µM ([5]; read-out: % Inhibition sVEGF): 90% | inhibition at 0.01 µM ([5]; read-out: % Inhibition sVEGF): 84% | inhibition at 0.1 µM ([5]; read-out: % Inhibition sVEGF): 60% | inhibition at 0.001 µM ([5]; HDFSAg, 1 nM, read-out: % Inhibition sIL-6): 33% | inhibition at 0.001 µM ([5]; HDFSAg, 1 nM, read-out: % Inhibition sIL-17F): 46% | inhibition at 0.01 µM ([5]; HDFSAg, 10 nM, read-out: % Inhibition IL-8): 25% | inhibition at 0.01 µM ([5]; HDFSAg, 10 nM, read-out: % Inhibition sIL-2): 47% | inhibition at 0.01 µM ([5]; HDFSAg, 10 nM, read-out: % Inhibition sIL-6): 91% | inhibition at 0.01 µM ([5]; HDFSAg, 10 nM, read-out: % Inhibition sIL-10): 73% | inhibition at 0.01 µM ([5]; HDFSAg, 10 nM, read-out: % Inhibition sIL-17A): 57% | inhibition at 0.01 µM ([5]; HDFSAg, 10 nM, read-out: % Inhibition sIL-17F): 86% | inhibition at 0.1 µM ([5]; HDFSAg, 100 nM, read-out: % Inhibition IL-8): 44% | inhibition at 0.1 µM ([5]; HDFSAg, 100 nM, read-out: % Inhibition MCP-1): 33% | inhibition at 0.1 µM ([5]; HDFSAg, 100 nM, read-out: % Inhibition MMP-1): 23% | inhibition at 0.1 µM ([5]; HDFSAg, 100 nM, read-out: % Inhibition sIL-2): 68% | inhibition at 0.1 µM ([5]; HDFSAg, 100 nM, read-out: % Inhibition sIL-6): 96% | inhibition at 0.1 µM ([5]; HDFSAg, 100 nM, read-out: % Inhibition sIL-10): 81% | inhibition at 0.1 µM ([5]; HDFSAg, 100 nM, read-out: % Inhibition sIL-17A): 74% | inhibition at 0.1 µM ([5]; HDFSAg, 100 nM, read-out: % Inhibition sIL-17F): 83% | inhibition at 0.1 µM ([5]; HDFSAg, 100 nM, read-out: % Inhibition sTNFa): 35% | bioavailability [6]: ~40% | EC50 (West Nile virus): 10 nM | EC50 (Rift Valley fever virus): 13 nM | AUC of plasma DHO (DHODH): 71.4 µg·h/mL | effect on primary AML blast cells [7]: caused a G1/S cell-cycle arrest, inhibition of proliferation, and cell death | drop in titer versus untreated cells (SARS-CoV-2; Example 11, 1, 0.5, or 0.25 µM, 24 hours post infection): three log drop in titer | EC50 (SARS-CoV-2; [10]): 2.6 nM | EC90 (SARS-CoV-2; [10]): 53 nM | viral replication (SARS-CoV-2; cells preincubated for 18 hours): inhibited viral replication | effect of excess uridine on inhibition of SARS-CoV-2 replication (SARS-CoV-2; excess uridine (100 uM)): overcame inhibition of SARS-CoV-2 replication | reduction of viral replication (SARS-CoV-2; pre-incubation 2 hours with 250, 500, and 1000 nM, after 24 hours, all dose levels): about 3 orders of magnitude | alanine aminotransferase, aspartate aminotransferase, and total bilirubin ([8]; rats dosed through 28 days): no increases | histopathologic findings in the liver ([8]; rats dosed through 28 days): no histopathologic findings in the liver | PTC299-related mortality ([8]; rats, toxicology studies): No PTC299-related mortality was observed

Reference: patent publication US20230172915A1, “DHODH INHIBITOR FOR THE TREATMENT OF COVID-19” (priority 2020, published 2023)
